Test results taken from patent publication US9834541B2, “2-aminopyridine compounds” (Merck Patent GmbH, priority 2012, dated 2017).

How the values were obtained:
[1] = CLint (intrinsic clearance) assay, liver microsomal incubation; assay type: in vitro ADME, human; settings: for microsomal CLint at 0.8 μM: liver microsomes, pH 7.4, human hepatic microsomes, 0.5 mg/mL protein, class symbols
Procedure, shortened: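 Human liver microsomes (0.5 mg/mL protein) in 0.1 M potassium phosphate pH 7.4 with 1 mM MgCl2 were incubated at 37 °C with NADPH and compound (diluted to 0.8 μM), with no-cofactor controls. Samples were acetonitrile-quenched at 0–30 min. CLint (μL/min/mg protein) = k·1000/protein concentration, from the LC-MS/MS peak-area decline slope.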

Wnt pathway [2] = test: Cellular assay for Wnt pathway activity, LS174T-shl-fLuc clone 5 (LS174T-L5) luciferase reporter assay; assay type: cell-based; settings: Homo sapiens; LS174T TCF luciferase reporter cells, 24 hours incubation
Procedure, shortened: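 LS174T human colon cancer cells stably carrying a 16×TCF/LEF-driven short-half-life firefly luciferase reporter were treated with compounds at 30 μM to 1 nM for 24 hours. Luciferase luminescence normalized to vehicle control; IC50 from curve fitting.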

Wnt pathway [3] = settings: see Table A on page 93 of WO 2010/041054; cited from earlier work

| SMILES | microsomal CLint at 0.8 μM [1] | IC50 (Wnt pathway [2]) | human hepatic microsomal intrinsic clearance (CLint), in words ([1]; statement in the related-art section) | inhibitory activity, in words (Wnt pathway [3]) |
| --- | --- | --- | --- | --- |
| CC(C)n1cc(-c2ccc(-c3cnc(N)c(Cl)c3N3CCC4(CCNC4=O)CC3)cc2)cn1 [Compound 69, 8-{2-Amino-3-chloro-5-[4-(1-isopropyl-1H-pyrazol-4-yl)-phenyl]-pyridin-4-yl}-2,8-diaza-spiro[4.5] decan-1-one] | 50 to 100 µL/min/mg | 0.052 µM | – | – |
| O=C1NCCC12CCN(c1c(Cl)cncc1-c1ccccc1)CC2 [Compound E60, 8-(3-Chloro-5-phenyl-pyridin-4-yl)-2,8-diaza-spiro[4.5]decan-1-one, reference compound] | ≥ 150 µL/min/mg | 0.23 µM | high | promising |

Now from value to compound, other results behind:

| microsomal CLint at 0.8 μM [1] | IC50 (Wnt pathway [2]) | human hepatic microsomal intrinsic clearance (CLint), in words ([1]; statement in the related-art section) | SMILES | inhibitory activity, in words (Wnt pathway [3]) |
| --- | --- | --- | --- | --- |
| ≥ 150 µL/min/mg | 0.023 µM | – | CCn1cc(-c2ccc(-c3cnc(N)c(Cl)c3N3CCC4(CCNC4=O)CC3)cc2)cn1 [Compound 70, 8-{2-Amino-3-chloro-5-[4-(1-ethyl-1H-pyrazol-4-yl)-phenyl]-pyridin-4-yl}-2,8-diaza-spiro[4.5] decan-1-one] | – |
| 10 to 50 µL/min/mg | 0.181 µM | – | CCn1ncc2ccc(-c3cnc(N)c(Cl)c3N3CCC4(CCNC4=O)CC3)cc21 [Compound 71, 8-[2-Amino-3-chloro-5-(1-ethyl-1H-indazol-6-yl)-pyridin-4-yl]-2,8-diaza-spiro[4.5] decan-1-one] | – |
| 100 to 150 µL/min/mg | 0.155 µM | – | CCn1ncc2cc(-c3cnc(N)c(Cl)c3N3CCC4(CCNC4=O)CC3)ccc21 [Compound 72, 8-[2-Amino-3-chloro-5-(1-ethyl-1H-indazol-5-yl)-pyridin-4-yl]-2,8-diaza-spiro[4.5] decan-1-one] | – |
| 100 to 150 µL/min/mg | 0.054 µM | – | CC(C)n1ncc2ccc(-c3cnc(N)c(Cl)c3N3CCC4(CCNC4=O)CC3)cc21 [Compound 73, 8-[2-Amino-3-chloro-5-(1-isopropyl-1H-indazol-6-yl)-pyridin-4-yl]-2,8-diaza-spiro[4.5] decan-1-one] | – |
